Data reported in patent US20200323815A1, “AMORPHOUS DISPERSIONS OF EPIGALLOCATECHIN GALLATE” (AMRI SSCI, LLC, priority 2017, published 2020).

Columns and labels:
[1] = Dissolution test in pH 7.4 PBS at 37° C.; format: physicochemical; conditions: for Release of EGCG in the first 20 minutes: 20 mg EGCG equivalent in 100 mL; for Visible solids during dissolution test: up to 24 hours
Description: As an initial proposition, the dispersions, aEGCG and cEGCG were modeled with respect to pseudo-second order models according to equation 1 where t is time, Q is cumulative release, and Qe the final release and, and k2 the rate constant of pseudo-second order kinetics.
Dissolution testing was performed in 100 mL of standard phosphate-buffered salines (pH 7.4) at 37° C. in a jacketed beaker. The temperature was precisely controlled by a Julabo Heating Circulator. EGCG concentration in the solution was in-situ monitored via an Ocean Optics USB2000+UV-VIS spectrometer equipped with an RT-2MM Dip Probe. The testing was performed with continuous stirring until all solids were dissolved and the medium was free of observable particles, or up to 24 hours. For early period of dissolution, the data acquisition density was relatively large to capture all sudden changes; while at later periods, the data acquisition frequency was reduced due to slow evolution in the medium. For each material, an equivalency of 20 mg EGCG was tested and the experiment was monitored until all solids were dissolved or up to 24 hours. Based on the dissolution data, all EGCG (˜20 mg) were released into the medium within the period of dissolution tests for all samples.

[2] = values as low as; rodents and humans; cited from earlier work
[3] = cited from earlier work
[4] = Stress tests in simulated GI tract media (SGF and SIF), observed under PLM; format: physicochemical
Description: For stress testing in media, solids of aEGCG and the dispersions were suspended in SGFs and SIFs (see Example 6), and the suspensions were observed under polarized light microscope from time to time to look for the evidence of birefringence and extinction (B/E) of the materials, which is the indication of the occurrence of crystallization in a material.
Polarized light microscopy (PLM) was performed using a Leica DM LP microscope with cross polarizer. SEM was performed using a FEI Quanta 200 scanning electron microscope equipped with an Everhart Thornley (ET) detector. Images were collected and analyzed using xTm (v. 2.01) and XT Docu (v. 3.2) software, respectively. The thermogravimetric analyses (TGA) were performed using a TA Instruments Q5000 IR thermogravimetric analyzer. Each sample was placed in an aluminum sample pan and inserted into the TGA furnace. The furnace was first equilibrated at 25° C., and then heated under N2 at a rate of 10° C./min, up to a final temperature of 350° C. Modulated differential scanning calorimetry (mDSC) data were obtained on a TA Instruments Q2920 differential scanning calorimeter equipped with a refrigerated cooling system (RCS). The test was progressed by modulating temperature±0.8° C. every 60 seconds from 0 to 180° C. The reported glass transition temperature (Tg) is obtained from the inflection point of the step change in the reversing heat flow versus temperature curve.
Solids were suspended in media including simulated gastric fluid (SGF) and simulated intestinal fluid (SIF), and observed under PLM from time to time up to 24 hours for evidence of crystallization indicative by the appearance of birefringence/extinctions. Because of the high solubility of aEGCG, more materials were suspended into the media compared with the dispersions.

[5] = Stress test at about 40° C./75% RH for 11 days; format: physicochemical
Description: The physical stability of aEGCG and the four dispersions were evaluated at different conditions including a typical stress condition of 40° C./75% RH for 11 days, and in media of SGF and SIF for 24 h. Table 1 summarizes the visual observations on the materials after they have been stressed at 40° C./75% RH for 11 days. The aEGCG became a hard material after stress, while all the dispersions were particles or soft aggregates.
XRPD patterns were collected with a PANalytical X'Pert PRO MPD diffractometer using an incident beam of Cu radiation produced using an Optix long, fine-focus source. An elliptically graded multilayer mirror was used to focus Cu Kα X-rays through the specimen and onto the detector. Prior to the analysis, a silicon specimen (NIST SRM 640e) was analyzed to verify the observed position of the Si 111 peak is consistent with the NIST-certified position. A specimen of the sample was sandwiched between 3-μm-thick films and analyzed in transmission geometry. A beam-stop, short antiscatter extension, and antiscatter knife edge were used to minimize the background generated by air. Soller slits for the incident and diffracted beams were used to minimize broadening from axial divergence. Diffraction patterns were collected using a scanning position-sensitive detector (X'Celerator) located 240 mm from the specimen and Data Collector software v. 2.2b. […]

[6] = Stability of dispersions of varying weight ratios, about 40° C./75% RH/30 days; format: physicochemical
Description: For the four polymers identified, further stress tests were carried out on dispersions with varying weight ratios of EGCG to polymer as set forth in Example 8. In these experiments, stressing was done for 30 days at 75% relative humidity at 40° C. for 30 days. FIGS. 50-63 are the XRPD patterns of the prepared dispersions prior to stressing. FIGS. 75-78 are the XRPD patterns after stressing and these too show the samples to amorphous by XRPD. FIGS. 82, 83, and 85 show a peak indicative of NaCl, which is used in the salt both of the humidity chamber storing the samples. Thus, such a peak is not indicative of any crystalline EGCG in the corresponding dispersions. […] Based on the XRPD results, the post-stressing dispersions were x-ray amorphous (other than the NaCl peaks).
20 capsules of Teavigo™ were broken and the solids were suspended in ˜300 mL HPLC grade water and filtered to remove the solids. The resultant solution was clear with no evidence of solid particles observed. The solution was then dried under N2 purge until water is fully removed based on visual observation. Such generated EGCG solids were directly used for generating amorphous EGCG and solid dispersions.
EGCG solid dispersions were prepared by lyophilization using four polymers including HPMC-AS, HPMC-P, Soluplus®, and cellulose acetate. Individual solutions of polymer (in dioxane) and EGCG (in water) were prepared. The EGCG aqueous solution was added into the polymer-dioxane solution slowly. Additional fresh dioxane were added into the samples followed by vigorous vortexing to reach a clear solution without visible solids or colloids.
For lyophilization, each EGCG/polymer solution was frozen in a cold bath of dry ice/acetone (at a temperature of −78° C.). The sample vial was then kept in a lyophilizer at −30° C. for 1 day, −10° C. for 2 days, 0° C. for 1 day, and then 20° C. for 4 hours. Pure EGCG aqueous solution was lyophilized as well to generate amorphous EGCG (EGCG) as a reference material for comparison with the dispersions. The lyophilized materials are free flowing materials.

Release of EGCG in the first 20 minutes [1]	Visible solids during dissolution test [1]	Observations under PLM in SGF ([4]; simulated gastric fluid, up to 24 h, B/E = birefringence/extinction, indicates crystallization)	Observations under PLM in SIF ([4]; simulated intestinal fluid, up to 24 h, B/E = birefringence/extinction, indicates crystallization)	Release profile (in words) [1]	Visual observation after stress [5]	XRPD of post-stress samples [5]	XRPD of post-stressing solids ([6]; 40° C./75% RH, 30 days)	Color after stress ([6]; 40° C./75% RH, 30 days, visual observation)	Color as generated ([6]; before stress, visual observation)	Time to crystallization in SGF ([4]; suspended in SGF, PLM)	Time to crystallization in SIF ([4]; suspended in SIF, PLM)	Compound	Bioavailability [2]	Share present in plasma in free form ([3]; Manach et al. 2005)	Improvement in bioavailability ([3]; coadministration of piperine, Lambert et al. 2004)
approximately 93%	dissolved without visible solids											O=C(O[C@@H]1Cc2c(O)cc(O)cc2O[C@@H]1c1cc(O)c(O)c(O)c1)c1cc(O)c(O)c(O)c1 [cEGCG, epigallocatechin gallate]			
		B/E observed in 15 min	B/E observed in 15 min									O=C(O[C@@H]1Cc2c(O)cc(O)cc2O[C@@H]1c1cc(O)c(O)c(O)c1)c1cc(O)c(O)c(O)c1 [EGCG, epigallocatechin gallate]	2-5%	77-90%	30%
~100%	dissolved without visible solids			immediate dissolution	pink hard material, agg	highly crystalline material	converted to crystalline EGCG	pink	very light pink,	≤ 15 min	≤ 15 min	O=C(O[C@@H]1Cc2c(O)cc(O)cc2O[C@@H]1c1cc(O)c(O)c(O)c1)c1cc(O)c(O)c(O)c1 [aEGCG, epigallocatechin gallate]			
